According to ChEMBL document CHEMBL1201862, “PubChem BioAssay data set” (2004):
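Interpolation was linear, between the two tested concentrations surrounding the appropriate level; five concentrations were tested over 48 hours in 96-well plates. Here, GI50 denotes the concentration required for 50% inhibition of growth.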 Activity calls are given as the source filed them. Rule as the data show it: active = GI50 up to about 1.1 µM and inactive = higher.

Legend:
Test in all cases: NCI-60 cell line screen, 48 h
M14 = test system: M14
IGROV-1 = test system: IGROV-1
HL-60 = test system: HL-60
HCT-116 = test system: HCT-116
EKVX = test system: EKVX
MCF7 = test system: MCF7
SK-MEL-28 = test system: SK-MEL-28
MDA-MB-435 = test system: MDA-MB-435
T47D = test system: T47D
MOLT-4 = test system: MOLT-4
BT-549 = test system: BT-549
CAKI-1 = test system: CAKI-1
U-251 = test system: U-251
KM12 = test system: KM12
NCI-H522 = test system: NCI-H522
DU-145 = test system: DU-145
SF-268 = test system: SF-268
OVCAR-5 = test system: OVCAR-5
Malme-3M = test system: Malme-3M

Compound | GI50 (M14) | GI50 (IGROV-1) | GI50 (HL-60) | GI50 (HCT-116) | GI50 (EKVX) | GI50 (MCF7) | GI50 (SK-MEL-28) | GI50 (MDA-MB-435) | GI50 (T47D) | GI50 (MOLT-4) | GI50 (BT-549) | GI50 (CAKI-1) | GI50 (U-251) | GI50 (KM12) | GI50 (NCI-H522) | GI50 (DU-145) | GI50 (SF-268) | GI50 (OVCAR-5) | GI50 (Malme-3M)
O=C1/C(=C/c2ccc(Cl)cc2)Oc2ccccc21 | 43.8 µM (inactive) | > 10 µM (inactive) | > 100 µM (inactive) | 59.4 µM (inactive) | 22.1 µM (inactive) | 30.2 µM (inactive) | > 100 µM (inactive) | 79.3 µM (inactive) | 27.4 µM (inactive) | 55.6 µM (inactive) | 25.6 µM (inactive) | 2.76 µM (inactive) | 36.3 µM (inactive) | 32.4 µM (inactive) | 11.7 µM (inactive) | 19.7 µM (inactive) | 51.6 µM (inactive) |  | 
O=[N+]([O-])c1ccc(C(O)(C#CCN2CCCC2)c2ccccc2)cc1 (centres undefined) | 17.5 µM (inactive) | 25.8 µM (inactive) | 18.4 µM (inactive) | 46.6 µM (inactive) | 54.6 µM (inactive) | 53.7 µM (inactive) | 17.6 µM (inactive) | 24.1 µM (inactive) | 28.5 µM (inactive) | 25.8 µM (inactive) | 77.4 µM (inactive) |  | 38.9 µM (inactive) | 41.8 µM (inactive) | 22.4 µM (inactive) | > 100 µM (inactive) | 27 µM (inactive) | 57.9 µM (inactive) | 16.6 µM (inactive)
CCCNC(=O)c1cc(NC(=O)c2cc(NC(=O)CCS(=O)(=O)OC)cn2C)cn1C | 28.6 µM (inactive) | 15 µM (inactive) |  | 12.8 µM (inactive) | 51.1 µM (inactive) | 20.5 µM (inactive) | 33.3 µM (inactive) | 19.1 µM (inactive) | 5.11 µM (inactive) | 17.5 µM (inactive) | 3.68 µM (inactive) | > 52 µM (inactive) | 6.62 µM (inactive) | 21.9 µM (inactive) | 1.87 µM (inactive) | 24.2 µM (inactive) |  | 40.9 µM (inactive) | 8.41 µM (inactive)
C#CC(O)Cc1ccc(OC)c2occc12 (centres undefined) | > 100 µM (inactive) | > 100 µM (inactive) |  | > 100 µM (inactive) | 69.3 µM (inactive) | > 100 µM (inactive) |  | > 100 µM (inactive) | > 100 µM (inactive) |  | > 100 µM (inactive) | > 100 µM (inactive) | > 100 µM (inactive) | > 100 µM (inactive) | > 100 µM (inactive) | > 100 µM (inactive) | > 100 µM (inactive) | > 100 µM (inactive) | > 100 µM (inactive)
CC(CC(=O)O)(CC(=O)O)C(=O)O | > 100 µM (inactive) | > 100 µM (inactive) |  | > 100 µM (inactive) | > 100 µM (inactive) | > 100 µM (inactive) | > 100 µM (inactive) | > 100 µM (inactive) | > 100 µM (inactive) | > 100 µM (inactive) | > 100 µM (inactive) | > 100 µM (inactive) | > 100 µM (inactive) | > 100 µM (inactive) | > 100 µM (inactive) | > 100 µM (inactive) | > 100 µM (inactive) | > 100 µM (inactive) | > 100 µM (inactive)
CCOC(=O)c1cn2c(n1)sc1cc(Cl)ccc12 | 18.3 µM (inactive) | 24.7 µM (inactive) |  | 3.37 µM (inactive) | 18.7 µM (inactive) | 4.2 µM (inactive) | 76.2 µM (inactive) | 5.68 µM (inactive) | 57.8 µM (inactive) | 2.96 µM (inactive) | > 100 µM (inactive) | 19.2 µM (inactive) | 14.1 µM (inactive) | 4.54 µM (inactive) | 31.2 µM (inactive) | 10.7 µM (inactive) | 30.6 µM (inactive) | 15 µM (inactive) | 13.1 µM (inactive)
CO/C=C(/C(=O)OC)c1ccccc1Oc1c(F)c(F)c(F)c(F)c1F | 35.3 µM (inactive) | 29.3 µM (inactive) | < 0.01 µM (active) | 22.9 µM (inactive) | 32.7 µM (inactive) | 38.2 µM (inactive) | 55.7 µM (inactive) | 29.7 µM (inactive) | 21.2 µM (inactive) | 7.69 µM (inactive) | > 100 µM (inactive) | 12.8 µM (inactive) | 44.7 µM (inactive) | 24 µM (inactive) |  | 33 µM (inactive) | 50.1 µM (inactive) | > 100 µM (inactive) | 
COc1ccc(-c2cc(=O)c3c(O)c(OC)c(OC)c(OC)c3o2)cc1OC [5-DEMETHYLNOBILETIN] | > 100 µM (inactive) | 53.1 µM (inactive) | > 100 µM (inactive) | > 100 µM (inactive) | > 100 µM (inactive) | > 100 µM (inactive) | > 100 µM (inactive) |  | 4.28 µM (inactive) | > 100 µM (inactive) | 50.9 µM (inactive) | > 100 µM (inactive) | 39.7 µM (inactive) | > 100 µM (inactive) | 8.97 µM (inactive) | > 100 µM (inactive) | 10.1 µM (inactive) | > 100 µM (inactive) | > 100 µM (inactive)
